Test results reported in US9080154B1, “Cancer stem cell survivor lines” (BOWLING GREEN STATE UNIVERSITY, priority 2012, dated 2015).

Columns and labels:
KY-10 cell line [1] = assay: crystal violet assay, cells remaining after curcumin; assay type: cell-based, human; conditions: 30 hrs, concentration that kills half the cells
Protocol: (§1) To determine the effect of different doses of curcumin on the ESCC lines, each cell line was plated in 24-well plates (Corning) at a density of 5×10^4 cells/well in complete DMEM, and incubated at 37° C. Curcumin (Sigma-Aldrich, St Louis, Mo.) was dissolved in dimethyl sulfoxide (DMSO) to make a stock solution of 20 mM curcumin. For each experiment, stock solution was diluted to the final concentrations (20, 30, 40, 60 and 80 μM) in complete DMEM. Twenty-four hours after plating, the wells were washed with PBS once, and 1 ml of each curcumin dosage was added (4 wells/dosage) and incubated for 30 hrs. Four other wells received complete DMEM or complete DMEM with 0.2% DMSO as controls. The inhibition of cell growth in response to curcumin treatment was assayed with the crystal violet staining assay according to a standard protocol. Briefly, the cells in each well were washed once with PBS, stained with 200 μl crystal violet in 50% ethanol (10 mg/ml), and incubated at room temperature for 10 min. The crystal violet was then removed and the wells were washed two times with distilled water, and 600 μl of 1% sodium dodecylsulfate (SDS) in water was added to each well. The plates were maintained overnight at room temperature on a shaker to dissolve the dye. Absorbance was read at 490 nm using a Wallac Victor 1420 Multilabel plate reader (Perkin Elmer, Waltham, Mass.). The background readings from the SDS solution were subtracted from each reading and the percentage of cells remaining after curcumin treatment was calculated. The results were plotted in OriginPro 7.5 (OriginLab) and analyzed by ANOVA.
(§2) To assess the sensitivity of the six human ESCC lines to curcumin, the cell lines (TE-1, TE-8, KY-5, KY-10, YES-1, and YES-2) were plated in 24-well plates for 24 hrs and then exposed to 20, 30, 40, 60, and 80 μM curcumin and to 0.2% DMSO as a control for 30 hrs. The resulting cell density was determined by standard crystal violet assay. The cell density remaining after the treatment is shown in the dose-response curve (FIG. 2). […] However, KY-5 had the highest percentage of cells remaining at the highest curcumin concentration, and the YES-2 cell line had the lowest percentage of cells remaining. When the cell lines were ranked from low to high according to their sensitivity to 60 μM curcumin the order was: KY-5, YES-1, TE-8, TE-1, KY-10, and YES-2.

KY-5 cell line [2] = assay: as above; assay type: cell-based, human; conditions: 30 hrs
Protocol: as §1, §2

YES-2 cell line [3] = assay: as above; assay type: cell-based, human; conditions: 30 hrs
Protocol: as §1, §2

[4] = tested on: six human ESCC lines (TE-1, TE-8, KY-5, KY-10, YES-1, YES-2); assay: as above; assay type: cell-based; conditions: 20-80 μM curcumin, 30 hrs; all six ESCC lines
Protocol: as §1, with “The inhibition of cell growth in response to curcumin treatment was assayed with the crystal violet staining assay according to a standard protocol. Briefly, the cells in each well were washed once with PBS, stained with 200 μl crystal violet in 50% ethanol (10 mg/ml), and incubated at room temperature for 10 min. The crystal violet was then removed and the wells were washed two times with distilled water, and 600 μl of 1% sodium dodecylsulfate (SDS) in water was added to each well. The plates were maintained overnight at room temperature on a shaker to dissolve the dye.” left out
To assess the sensitivity of the six human ESCC lines to curcumin, the cell lines (TE-1, TE-8, KY-5, KY-10, YES-1, and YES-2) were plated in 24-well plates for 24 hrs and then exposed to 20, 30, 40, 60, and 80 μM curcumin and to 0.2% DMSO as a control for 30 hrs. The resulting cell density was determined by standard crystal violet assay. […]

KY-10 cell line [5] = assay: surviving colonies after curcumin treatment; assay type: cell-based, human; conditions: 60 μM curcumin, 30 hrs
Protocol: (§3) To select for a curcumin-surviving cell subpopulation, each of the ESCC cell lines was cultured in 100-mm dishes (1×10^5 cells/dish) with complete DMEM and incubated at 37° C. until reaching near confluency, approximately 80%. After incubation, the medium was removed and the cells were incubated in complete DMEM containing either 40 or 60 μM curcumin in dissolved in 0.2% DMSO for 30 hrs. After incubation, the medium-containing curcumin was removed and replaced with complete DMEM to allow cells that survived the treatment to grow. After the surviving cells formed colonies (normally four weeks after treatment), the colonies were counted, trypsinized, and passaged. The cell lines that developed were designated the curcumin-surviving cell lines.
(§4) According to the dose-response results, 60 μM curcumin was chosen to select for the curcumin-surviving cell line subpopulations. To establish this subpopulation, 1×10^5 cells from each ESCC lines were plated into a 100 mm tissue culture dishes and incubated until they reached near confluency. The cells were then exposed to 60 μM curcumin for 30 hrs. and the surviving colonies formed were counted. The number of colonies formed after 60 μM curcumin treatment varied among the six cell lines.

KY-5 cell line [6] = assay: surviving colonies after curcumin treatment; assay type: cell-based, human; conditions: 60 μM curcumin, 30 hrs
Protocol: as §3, §4

TE-1 cell line = assay: surviving colonies after curcumin treatment; assay type: cell-based, human; conditions: 60 μM curcumin, 30 hrs
Protocol: as §3, §4

TE-8 cell line = assay: surviving colonies after curcumin treatment; assay type: cell-based, human; conditions: 60 μM curcumin, 30 hrs
Protocol: as §3, §4

YES-1 cell line = assay: surviving colonies after curcumin treatment; assay type: cell-based, human; conditions: 60 μM curcumin, 30 hrs
Protocol: as §3, §4

YES-2 cell line [7] = assay: surviving colonies after curcumin treatment; assay type: cell-based, human; conditions: 30 hrs
Protocol: as §3, §4

ALDH1A1 [8] = assay: ALDH1A1 immunocytochemistry of curcumin-surviving lines; assay type: cell-based, human; conditions: survived 60 μM curcumin
Protocol: as §3
(§5) To assess the expression of the stem cell markers ALDH1A1 and CD44 in both the original ESCC cell lines and the curcumin-surviving cell lines, each line was grown on glass cover slips in complete DMEM. After two days, the cover slips were rinsed with PBS and fixed with methanol for 5 min. The cover slips were then washed three times with PBS, exposed to 0.3% hydrogen peroxide for 3 min and rinsed three times with PBS. […]
(§6) The images of cell cultures immunostained for ALDH1A1 or CD44 were analyzed with ImageJ (NIH) and OriginLab (Microcal) software. […]

CD44 = CD44 immunocytochemistry of curcumin-surviving lines; assay type: cell-based, human
Protocol: as §3, §5, §6

ALDH1A1 [9] = assay: ALDH1A1 level by ELISA in curcumin-surviving lines; assay type: cell-based, human; conditions: all six surviving lines; t-test p<0.005
Protocol: (§7) To select for a curcumin-surviving cell subpopulation, each of the ESCC cell lines was cultured in 100-mm dishes (1×10^5 cells/dish) with complete DMEM and incubated at 37° C. until reaching near confluency, approximately 80%. After incubation, the medium was removed and the cells were incubated in complete DMEM containing either 40 or 60 μM curcumin in dissolved in 0.2% DMSO for 30 hrs. After incubation, the medium-containing curcumin was removed and replaced with complete DMEM to allow cells that survived the treatment to grow. After the surviving cells formed colonies (normally four weeks after treatment), the colonies were counted, trypsinized, and passaged. The cell lines that developed were designated the curcumin-surviving cell lines. To determine the level of ALDH1A1 and RelA (p65), the major subunit of transcription factor (NF-κB), on both curcumin-surviving cells and original cell lines, ELISA was performed as described previously. Briefly, each cell line was cultured in 96-well plates (5×10^4 cells/well) and incubated for 24 hrs at 37° C. After incubation, the wells were washed once with PBS and fixed with methanol for 5 min; the wells were then washed twice with PBS. […] The antigen-antibody reactions were measured by determining the optical density (O.D.) at 410 nm using MR-600 microwell plate reader (Dynatech Lab Inc.). The resulting absorbance was analyzed using ANOVA.

[10] = tested on: RelA (p65), the major subunit of NF-κB; assay: NF-κB level by ELISA in curcumin-surviving lines; assay type: cell-based, human
Protocol: as §7, with “PBS. Different dilutions of each antibody (anti-p65, Santa Cruz Biotechnology, SC-109, 200 μg/ml, and anti-ALDH1A1, Proteintech Group, 15910-1-AP, 133 μg/ml) were prepared in complete DMEM (1:50, 1:100, 1:200 and 1:500, 1:1000, 1:2000, respectively). The wells were incubated with 100 μl of each dilution (3 wells/dilution) for 2 hrs at 37° C. After incubation, the wells were washed with PBS three times and incubated with 100 μl/well of galactosidase-conjugated goat anti-rabbit secondary antibody (Southern Biotech, Birmingham, Ala.) (1:500 dilution in complete DMEM) for 2 hrs at 37° C.” for “PBS.”

[11] = concentration that kills half the cells

## COc1cc(/C=C/C(=O)CC(=O)/C=C/c2ccc(O)c(OC)c2)ccc1O [curcumin]
KY-10 cell line [1]
  LD50: less than 10 μM
KY-5 cell line [2]; 80 μM curcumin, crystal violet
  cells remaining after curcumin: 37%
KY-5 cell line [2]; [11]
  LD50: 32 µM
YES-2 cell line [3]; 80 μM curcumin, crystal violet
  attached cells remaining after curcumin: 4%
YES-2 cell line [3]; [11]
  LD50: 15 µM
[4]
  reduction in cells: reduction in cells in a dosage dependent manner
KY-10 cell line [5]
  number of surviving colonies formed: 19
KY-5 cell line [6]
  number of surviving colonies formed: too many colonies to count
TE-1 cell line
  number of surviving colonies formed: 8
TE-8 cell line
  number of surviving colonies formed: 17
YES-1 cell line
  number of surviving colonies formed: 25
YES-2 cell line [7]; 40 μM curcumin
  number of surviving colonies formed: 15
YES-2 cell line [7]; 60 μM curcumin
  number of surviving colonies formed: 0
ALDH1A1 [8]; KY-5S, original lines ranged 11.3% to 55.7%, KY-5 greatest
  percentage of high ALDH1A1-staining cells in curcumin-surviving line: 19%
ALDH1A1 [8]; TE-8S
  percentage of high ALDH1A1-staining cells in curcumin-surviving line: 0%
CD44; YES-1S, survived 60 μM curcumin, original YES-1 16%
  percentage of high CD44-staining cells in curcumin-surviving line: 6.5%
CD44; YES-2S, survived 40 μM curcumin, original YES-2 19%
  percentage of high CD44-staining cells in curcumin-surviving line: 9.2%
ALDH1A1 [9]
  ALDH1A1 level of curcumin-surviving lines compared to original lines: lower ALDH1A1 level
[10]; KY-5, YES-1 and YES-2 surviving lines, t-test p<0.005
  NF-κB level of curcumin-surviving lines compared to original lines: lower NF-κB levels
[10]; KY-10 surviving line, t-test p>0.05
  NF-κB level of curcumin-surviving line compared to original line: no difference
[10]; TE-1 and TE-8 surviving lines
  NF-κB level of curcumin-surviving lines compared to original lines: increase of NF-κB level
